Test results: PubChem BioAssay (NCI)
Where “and” joins values, the source holds several entries; their conditions need not be identical. Equal entries are not always repeated.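 Compound exposure: 48 hours, 5 concentrations, 96-well plates. Here, GI50 denotes the concentration required for 50% inhibition of growth. TGI is the concentration that stops growth completely.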

Tests used:
Assay in all cases: NCI tumour cell line growth inhibition, 48 h
[1] = test system: A498 renal
[2] = test system: NCI-H460 lung
[3] = test system: MDA-N
[4] = test system: DLD-1 colon
[5] = test system: DMS 273 small cell lung
[6] = test system: HOP-18 NSCLC
[7] = test system: KM20L2 colon
[8] = test system: M19-MEL melanoma
[9] = test system: SNB-78 CNS
[10] = test system: P388 leukemia
[11] = test system: XF 498 CNS

Structure (SMILES) | TGI [1] | TGI [2] | TGI [3] [µM] | TGI [4] | TGI [5] | TGI [6] [µM] | TGI [7] | TGI [8] [µM] | further results
Cn1c2ccccc2c2c(-c3ccccc3)[n+]3ccccc3nc21 | > 100 µM | 59.6 µM |  |  |  |  |  |  | 
O=C(O)CNC(=O)CO/N=C1/C(c2c(O)[nH]c3ccccc23)=Nc2ccccc21 |  | > 100 µM | > 100 |  |  |  |  |  | 
CN(C)c1ccc(/C=C2/SC(=S)NC2=O)cc1 | > 100 µM | > 100 µM | > 100 |  |  |  |  |  | 
C=CCc1cc(-c2cc(CC=C)c(O)c(CN(CCCl)CCCl)c2)cc(CN(CCCl)CCCl)c1O | 40.5 µM | 29.1 µM | 35 | 36.2 µM | 30.3 µM | 67 | 35.4 µM | 34.7 | TGI [9]: > 100 µM
COc1cc(O)cc(/C=C/c2ccc(O)cc2)c1 | 94.3 µM | > 100 µM |  |  |  |  |  |  | 
O=C1/C(=C/C=C/c2ccccc2)N=C(c2ccccc2)N1C1Nc2cc3c(cc2S1)NC(N1C(=O)/C(=C/C=C/c2ccccc2)N=C1c1ccccc1)S3 (configuration not stated) | > 100 µM | > 100 µM |  |  |  |  |  |  | 
CN1C(=O)c2ccccc2NC(=O)c2cnn(C)c21 | > 100 µM | > 100 µM |  | > 100 µM | > 100 µM | > 100 | > 100 µM | > 100 | TGI [10]: > 100 µM; TGI [9]: > 100 µM; TGI [11]: > 100 µM
C[n+]1c2ccccc2c(CNc2ccc(S(=O)(=O)N=C(N)N)cc2)c2ccccc21 | 86.2 µM | 15 µM |  | 65.5 µM | 24.2 µM |  | 59.6 µM | 42 | TGI [9]: 78.1 µM
CC1=NN(c2cccc(Cl)c2)C2(SCC(=O)N2c2nc3ccccc3s2)/C1=C\c1ccc(Cl)cc1 (configuration not stated) | 40.2 µM | 33.3 µM | 69.8 |  |  |  |  |  | 
O=C(O)CCCCCCC[C@@H]1S[C@H]1CCCCCCO | > 100 µM | > 100 µM |  | > 100 µM | > 100 µM | > 100 | > 100 µM | > 100 | TGI [10]: > 100 µM; TGI [9]: > 100 µM; TGI [11]: > 100 µM
Nc1ccccc1CCCC(=O)O | > 100 µM | > 100 µM | > 100 |  |  |  |  |  | 
CC1=C(C)C(=O)O[C@@H]([C@](C)(O)[C@]2(O)CC[C@@]3(O)[C@@H]4C[C@H]5O[C@]56[C@@H](O)C=CC(=O)[C@]6(C)[C@H]4CC[C@]23C)C1 | 11.1 µM and 2.08 µM | 9.22 µM and 9.66 µM |  | 3.36 µM and 3.89 µM | 5.32 µM and 3.13 µM | 2.44 | 4 µM and 1.35 µM |  | GI50 [1]: 1.12 µM and 0.376 µM; GI50 [4]: 0.666 µM and 0.162 µM; GI50 [5]: 1.5 µM and 0.252 µM; GI50 [7]: 0.335 µM and 0.125 µM; GI50 [2]: 2 µM; GI50 [10]: 0.17 µM and 0.0616 µM; GI50 [11]: 0.082 µM; TGI [11]: 0.819 µM and 0.8 µM
O=c1[nH]c(Nc2ccc(F)c(Cl)c2)nc2nc[nH]c12 | > 100 µM | > 100 µM | > 100 |  |  |  |  |  | 
S=C1SC(=Nc2ccccc2)C(=Nc2ccccc2)N1c1ccccc1 | > 100 µM | > 100 µM | > 100 |  |  |  |  |  | 
CC(C)=CC1C(COC(=O)c2cc3c(cc2Cl)OCO3)C1(C)C (configuration not stated) | 90.6 µM | > 100 µM | > 100 |  |  |  |  |  | 
Cc1cc(NC(=S)Nc2ccccc2)c(NC(=S)Nc2ccccc2)cc1C | 98.3 µM | > 61.7 µM |  | > 100 µM | > 100 µM | > 100 | > 92 µM | > 100 | TGI [10]: 13.5 µM; TGI [11]: 84 µM
COCc1nc2c(OC)cc(-c3nc4nc(N5CCN(C)CC5)ccc4[nH]3)c(OC)c2[nH]1 | > 100 µM | > 100 µM | > 100 |  |  |  |  |  | 
N#C[S-].[Nd+3].c1cnc2c(c1)ccc1cccnc12.c1cnc2c(c1)ccc1cccnc12.c1cnc2c(c1)ccc1cccnc12 | 13.6 µM |  |  |  |  | 7.53 | 15.3 µM | 3.63 | GI50 [6]: 0.787 µM; GI50 [7]: 1.11 µM; GI50 [8]: 0.566 µM; GI50 [11]: 4 µM; TGI [11]: 9.61 µM
O=C1C=CC2(O[C@H](c3ccccc3)[C@@H](c3ccccc3)O2)C(SC(=O)c2ccccc2)C1 (some centres not stated) | 20.6 µM | 15.6 µM | 3.32 |  |  |  |  |  | 
CCC(=O)Nc1ccc(N=Cc2cccc(Oc3ccccc3)c2)cc1 | > 100 µM |  | > 100 |  |  |  |  |  | 
